# According to US6713048B2, “Δ9 tetrahydrocannabinol (Δ9 THC) solution metered dose inhalers and methods of use” (Virginia Commonwealth University, priority 1998, dated 2004):
# Assays:
# Glaucoma = details: oral 5, 10, 15 and 20 mg THC; 6 glaucoma patients; cited from earlier work
# [1] = test system: Nausea and emesis due to Cancer chemotherapy; details: oral 10 mg/m^2 THC every 3 hours, 5 doses, 15 patients, cited from earlier work
# [2] = Apparent solubility of Δ^9 THC in ethanol/HFA propellant blends; format: physicochemical
# Excerpt: When the propellant is a hydrofluoroalkane, it has been discovered that the propellant may be used with or without a solvent such as ethanol. Higher percentages of solvent generally allow higher levels of dissolution of Δ^9 THC. However, higher percentages of solvent also cause droplet size to increase. […] Within this range of percentages, pharmaceutically useful concentrations of Δ^9 THC can be achieved and droplet size is still small enough (<5.8 um) to provide excellent aerosol delivery of the drug. While these ratios reflect preferred embodiments of the invention, it will be recognized by those of skill in the art that the exact ratio of propellant to solvent (e.g. ethanol) may vary according to the desired final concentration of Δ^9 THC and droplet size. Any ratio of propellant to solvent that results in appropriate sized droplets and adequate dissolution of the Δ^9 THC may be used in the practice of this invention, and this will generally be in the range of from 100 to 80% propellant and 0 to 20% solvent. It is expected that a wide variety of solvents, such as ethanol, propanol, propylene glycol, glycerol, polyethylene glycol, etc. may be used in the preparation of formulations contemplated by this invention.
# [3] = Blood levels of Δ^9-THC by LC-MS; details: mouse, whole blood
# Method: Whether inhalation exposure to Δ^9 THC aerosol would elicit pharmacological effects indicative of cannabinoid activity in mice (Compton, D. R., Rice, K. C., De Costa, B. R., Rzdan, R. K., Melvin, L. S., Johnson, M. R., Martin, B. R., Cannabinoid structure-activity relationships: Correlation of receptor binding and in vivo activities, J Pharmacol Exp Ther, 265:218-226 (1993); Little et al., 1988) was determined.
# Blood and brain levels of Δ^9-THC were determined as follows. Extraction and LC-MS quantification of Δ^9-THC from whole blood and brain tissue were modified from Lichtman, A. H., Poklis, J. L., Wilson, D. M., Martin, B. R., The pharmacological activity of inhalation exposure to marijuana smoke in mice, Drug Alc Depend, 63:107-116 (2001). Particularly, THC and 2H^3-THC were extracted from brain material which contains a high degree of lipids. Acetonitrile was added to the pelletized solids and stored in a freezer overnight to separate the acetonitrile layer (which contained THC/2H^3-THC) from the aqueous layers. The following day the acetonitrile layer was removed. In the Lichtman et al., study, 2 ml of 9:1 NaOH was added and the sample was vortexed. Four ml of 9:1 hexane:ethyl acetate was added and the sample was vortexed and spun […] for 30 minutes. The vials were then centrifuged at 4,000 rpm […] for 10 minutes. The organic layer was removed and evaporated. Upon drying, a derivatizing agent was added and the sample was vortexed, and each sample analyzed by GC/MS. In the present experimentation, the acetonitrile was instead evaporated to dryness under nitrogen. The material was then resolubilized in 0.1 ml methanol. LC-MS identification was used to quantify Δ^9-THC/2H^3-THC in blood and brain matrices. […] Fifty ng of ^2H3-THC (Radian Corporation, Austin, Tex.) was added to the blood sample, brain homogenate, and calibrators as an internal standard. Following an equilibration period, 2.5 ml of cold acetonitrile (HPLC grade, Fisher Scientific, Raleigh, N.C.) was added drop-wise while vortexing. The samples were then centrifuged (Precision Vari-Hi-Speed Centricone, Precision Scientific Co., Chicago, Ill.) at 2500 rpm for 15 minutes to pelletize solids, then stored in the freezer (−20° C.) overnight, allowing the acetonitrile layer to separate from the aqueous layers. The acetonitrile layer was then removed and evaporated to dryness under nitrogen. The Δ^9-THC/^2H3-THC was then resolubilized in 0.1 ml methanol (HPLC grade, Fisher Scientific).
# LC-MS identification was used for quantification of Δ^9-THC and ^2H3-THC in blood and brain matrices using an 85:15 methanol: 1% glacial acetic acid (0.1% formic acid) mobile phase. A guard column was used inline with the standard reverse phase C18 column. The mass spectrometer was run in APCI+mode. Ions analyzed in single ion monitoring mode were 315 for Δ^9-THC and 318 for ^2H3-THC. A calibration curve was constructed for each assay based on linear regression using the peak-area ratios of Δ^9-THC to ^2H3-THC of the extracted calibration samples.
smiles,measurement,setting,value
"CCCCCc1cc(O)c2c(c1)OC(C)(C)[C@@H]1CCC(C)=C[C@@H]21 (relative stereo) [Δ^9 THC, (6aR-trans)-6a,7,8,10a-tetrahydro-6,6,9-trimethyl-3-pentyl-6H-dibenzo[b,d]-pyran-1-ol]",appetite,Glaucoma,"appetite stimulation,"
same,mood,Glaucoma,elevated mood
same,pain,Glaucoma,Pain relief
same,patients with a fair response,[1],"excellent response, 40%"
same,plasma THC levels (mean + SD),[1],THC levels 7.1 ± 6.9 (mean ng/ml
same,side effects,[1],"tachycardia, few other side"
same,patients with a reduction in nausea and vomiting,[1]; THC (17 mg) laced cigarettes if vomiting occurred,93% patients had a
same,Apparent Solubility Mean (±SD),[2]; 5% Ethanol/95% HFA 134a,1.585% w/w
same,Apparent Solubility Mean (±SD),[2]; 5% Ethanol/95% HFA 227,1.339% w/w
same,Apparent Solubility Mean (±SD),[2]; 10% Ethanol/90% HFA 227,3.240% w/w
same,Apparent Solubility Mean (±SD),[2]; 10% Ethanol/90% HPA 134a,3.511 % w/w
same,Apparent Solubility Mean (±SD),[2]; 15% Ethanol/85% HFA 134a,4.883% w/w
same,Apparent Solubility Mean (±SD),[2]; 15% Ethanol/85% HFA 227,5.94 % w/w
same,Apparent Solubility Mean (±SD),"[2]; 100% HFA 134a, n = 5",0.224% w/w
same,Apparent Solubility Mean (±SD),[2]; 100% HFA 227,0.147 % w/w
same,concentration at 20 min,"[3]; inhaled, 20 actuations",409 ± 86 ng/g
same,concentration at 20 min,"[3]; inhaled, 40 actuations",788 ± 273 ng/g
same,concentration at 20 min,"[3]; inhaled, 60 actuations",1130 ± 240 ng/g
same,concentration at 20 min,"[3]; iv, 1 mg/kg",102 ± 6 ng/g
same,concentration at 20 min,"[3]; iv, 3 mg/kg",365 ± 39 ng/g
same,concentration at 20 min,"[3]; iv, 10 mg/kg",1320 ± 38 ng/g
